Test systems include A498; COLO 205; DU-145; HL-60; HT-29; IGROV-1; K562; LOX IMVI; M14; MDA-MB-231; MDA-N; MOLT-4; NCI-H522; PC-3; RPMI-8226; SF-295; SF-539; SNB-19; UACC-257; UACC-62.
Common to all, as to assay: DTP human tumour cell line panel, 48 h

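Values below derive from 48-hour exposures of cells grown in 96-well plates, with endpoints linearly interpolated between the two concentrations bracketing the appropriate inhibition level. Abbreviation: GI50, concentration required for 50% inhibition of growth.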 Activity calls are given as the source filed them. No stated cut-off is given here; in the data, active = GI50 up to about 1.1 µM and inactive = higher.

For `O=c1c2cc3c(cc2[nH]c2ncccc12)OCO3`, the GI50 with A498, in the experiment with COLO 205, in the experiment with DU-145, in the experiment on HL-60, with HT-29 and in the experiment on IGROV-1 was > 10 µM (inactive) throughout. Further, the GI50 with K562, in the experiment with LOX IMVI, with M14, in the experiment with MDA-MB-231, in the experiment with MDA-N and with MOLT-4 was > 10 µM (inactive) throughout. Besides, the GI50 in the experiment on NCI-H522, with PC-3, in the experiment on RPMI-8226, in the experiment with SF-295, with SF-539 and in the experiment with SNB-19 was > 10 µM (inactive) each time. In addition, the GI50 in the experiment with UACC-257 and in the experiment on UACC-62 was > 10 µM (inactive) each time.
Take `O=[N+]([O-])/C(Cl)=C(\NCCO)C(Cl)=C(Cl)Cl`: the GI50 in the experiment on A498 is > 100 µM (inactive); in the experiment with COLO 205 it was 27.5 µM (inactive); in the experiment on DU-145, > 100 µM (inactive); in the experiment with HL-60, 4.35 µM (inactive); in the experiment with HT-29, 57 µM (inactive); in the experiment on IGROV-1, > 100 µM (inactive). For the same molecule, the GI50 with K562 is 8.2 µM (inactive); in the experiment on LOX IMVI, 70 µM (inactive); with M14, 38.8 µM (inactive); in the experiment with MDA-MB-231, > 64.9 µM (inactive); in the experiment with MDA-N, 55.5 µM (inactive); with MOLT-4, 20.7 µM (inactive). Besides, the GI50 with NCI-H522 was 21.7 µM (inactive); in the experiment with PC-3 it was 87.3 µM (inactive); in the experiment on RPMI-8226, 16.1 µM (inactive); in the experiment on SF-295, > 100 µM (inactive); in the experiment on SF-539 it was > 100 µM (inactive); with SNB-19, > 100 µM (inactive). Also, the GI50 with UACC-257 was > 100 µM (inactive); with UACC-62, 45.2 µM (inactive).
In the case of `COc1cc(/C=c2/c3ccccc3n3c2cc(-c2ccccc2)[n+]3C)cc(OC)c1OC`, the GI50 with A498 was 16 µM (inactive); with COLO 205, 1.69 µM (inactive); in the experiment on DU-145, 5.47 µM (inactive); in the experiment on HL-60, 2.39 µM (inactive); with HT-29 it was 3.07 µM (inactive); in the experiment with IGROV-1, 6.19 µM (inactive). The GI50 with K562 is 2.74 µM (inactive); with LOX IMVI, 3.69 µM (inactive); with M14, 4.95 µM (inactive); in the experiment with MDA-MB-231, 4.06 µM (inactive); in the experiment with MDA-N, 4.04 µM (inactive); with MOLT-4, 2.97 µM (inactive). Moreover, the GI50 in the experiment on NCI-H522 is 2.93 µM (inactive); with PC-3 it was 3.74 µM (inactive); in the experiment with RPMI-8226, 2.55 µM (inactive); in the experiment on SF-295 it was 5.64 µM (inactive); in the experiment on SF-539, 2.86 µM (inactive); in the experiment on SNB-19 it was 5.48 µM (inactive). Further, the GI50 in the experiment on UACC-257 was 2.44 µM (inactive); in the experiment with UACC-62, 3.69 µM (inactive).
On to `Cc1cccc(NC(=S)N/N=C(/c2ccccc2)c2ccccn2)c1`, for which the GI50 in the experiment on A498 was 1.98 µM (inactive); with COLO 205, < 0.0163 µM (active); with DU-145, 0.942 µM (active); with HL-60, < 0.0137 µM (active); with HT-29, 0.0285 µM (active); in the experiment on IGROV-1, < 0.0182 µM (active). Also, the GI50 was < 0.0135 µM (active) in the experiment on K562; 0.0224 µM (active) with LOX IMVI; < 0.01 µM (active) in the experiment on M14; 0.0378 µM (active) in the experiment with MDA-MB-231; 0.46 µM (active) in the experiment on MDA-N; < 0.0149 µM (active) with MOLT-4. The GI50 in the experiment with NCI-H522 is 1.09 µM (active); with PC-3, < 0.0143 µM (active); in the experiment on RPMI-8226, < 0.0182 µM (active); in the experiment on SF-295, 0.173 µM (active); with SF-539 it was 1.31 µM (inactive); in the experiment with SNB-19, 3.6 µM (inactive). For the same molecule, the GI50 was < 0.0162 µM (active) in the experiment with UACC-257 and 0.267 µM (active) in the experiment on UACC-62.
On to `C1CN1c1nc(N2CC2)nc(N2CC2)n1`, for which the GI50 in the experiment on A498 was 9.95 µM (inactive); in the experiment with COLO 205, 13.6 µM (inactive); in the experiment on DU-145, 2.78 µM (inactive); with HL-60 it was 0.649 µM (active); in the experiment on HT-29 it was 13.2 µM (inactive); in the experiment on IGROV-1, 14.2 µM (inactive). In addition, the GI50 in the experiment with K562 is 10.4 µM (inactive); with LOX IMVI, 3.08 µM (inactive); in the experiment with M14 it was 4.84 µM (inactive); in the experiment with MDA-MB-231, 20.2 µM (inactive); with MDA-N it was 12.1 µM (inactive); in the experiment on MOLT-4, 0.495 µM (active). The GI50 in the experiment with NCI-H522 was 5.21 µM (inactive); in the experiment on PC-3, 12.3 µM (inactive); in the experiment with RPMI-8226, 12.5 µM (inactive); in the experiment with SF-295, 2.37 µM (inactive); with SF-539 it was 2.68 µM (inactive); with SNB-19 it was 6.65 µM (inactive). In addition, the GI50 with UACC-257 was 10.7 µM (inactive); with UACC-62, 1.84 µM (inactive).
With `COc1c(O)cc2oc(-c3ccc(O)cc3)cc(=O)c2c1O` [HISPIDULIN], the GI50 in the experiment with A498 was 2.57 µM (inactive); with COLO 205, 90.4 µM (inactive); in the experiment on DU-145 it was 30.5 µM (inactive); in the experiment with HL-60, 24.5 µM (inactive); in the experiment with HT-29 it was 45.7 µM (inactive); in the experiment on IGROV-1, 22.7 µM (inactive). Also, the GI50 is 34.8 µM (inactive) in the experiment with K562; 39.2 µM (inactive) with LOX IMVI; 38.6 µM (inactive) with M14; 74.5 µM (inactive) with MDA-MB-231; 37.2 µM (inactive) in the experiment on MDA-N; 25.4 µM (inactive) in the experiment with MOLT-4. The GI50 in the experiment with NCI-H522 is 36.2 µM (inactive); in the experiment on PC-3 it was 34.2 µM (inactive); in the experiment on RPMI-8226, 46.3 µM (inactive); in the experiment on SF-295, 44.1 µM (inactive); with SF-539 it was 27 µM (inactive); in the experiment on SNB-19, 56.1 µM (inactive). The GI50 in the experiment with UACC-257 was > 100 µM (inactive); in the experiment on UACC-62, 19 µM (inactive).

Source of the values: ChEMBL document CHEMBL1201862, “PubChem BioAssay data set” (2004).
